Our source for the IC50 and Ki values is ChEMBL document CHEMBL1909046, “DrugMatrix in vitro pharmacology data”.

The nature of series [1]: DRUGMATRIX: ATPase, Na+/K+ enzyme inhibition (substrate: ATP). The class given is tissue-based, Sus scrofa, Heart. Particulars: Not Active = under 50% inhibition at 10 µM.
Series [2] has as its target Carbonic anhydrase 2 (Homo sapiens, UniProt P00918). Nature of the series: DRUGMATRIX: Carbonic Anhydrase II enzyme inhibition (substrate: 4-Nitrophenyl acetate (4-NPA)). The series is classed as tissue-based, Erythrocyte. As to conditions: erythrocyte; Not Active = under 50% inhibition at 10 µM.
The target of series [3] is T1, Polyunsaturated fatty acid lipoxygenase ALOX15 (Oryctolagus cuniculus, UniProt P12530).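 Further: inhibition of 15-lipoxygenase enzyme activity measured with linoleic acid as the substrate; in other assays of this panel Not Active means under 50% inhibition at 10 µM.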
T1 sequence (P12530 whole entry): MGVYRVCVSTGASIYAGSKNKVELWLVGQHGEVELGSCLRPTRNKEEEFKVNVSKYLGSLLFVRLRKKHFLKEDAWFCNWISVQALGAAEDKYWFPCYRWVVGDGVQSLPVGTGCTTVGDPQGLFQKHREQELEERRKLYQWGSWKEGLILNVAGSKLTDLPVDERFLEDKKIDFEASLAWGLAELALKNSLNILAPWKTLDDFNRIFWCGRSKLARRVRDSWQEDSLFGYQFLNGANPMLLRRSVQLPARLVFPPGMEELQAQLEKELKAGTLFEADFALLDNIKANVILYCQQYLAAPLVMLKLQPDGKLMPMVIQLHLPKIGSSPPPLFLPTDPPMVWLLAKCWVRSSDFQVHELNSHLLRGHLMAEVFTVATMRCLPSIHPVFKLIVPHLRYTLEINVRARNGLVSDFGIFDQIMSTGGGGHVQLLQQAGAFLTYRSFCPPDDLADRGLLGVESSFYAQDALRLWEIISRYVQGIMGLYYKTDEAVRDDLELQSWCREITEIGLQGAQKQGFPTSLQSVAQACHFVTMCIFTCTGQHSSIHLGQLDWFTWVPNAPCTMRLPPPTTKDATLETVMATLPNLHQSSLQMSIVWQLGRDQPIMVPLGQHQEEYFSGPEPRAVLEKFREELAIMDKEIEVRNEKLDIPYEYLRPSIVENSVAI
In words: biochemical. The series is classed as tissue-based, Reticulocytes.

Series [4] concerns the target Kappa-type opioid receptor (Homo sapiens, UniProt P41145). In words: DRUGMATRIX: Opiate kappa (OP2, KOP) radioligand binding (ligand: [3H] Diprenorphine). The class given is cell membranes, HEK293, Membrane. As to conditions: hek293; Not Active = under 50% inhibition at 10 µM.
Series [5] deals with T2, Caspase-1 (Homo sapiens, UniProt P29466).
T2 sequence (P29466 whole entry): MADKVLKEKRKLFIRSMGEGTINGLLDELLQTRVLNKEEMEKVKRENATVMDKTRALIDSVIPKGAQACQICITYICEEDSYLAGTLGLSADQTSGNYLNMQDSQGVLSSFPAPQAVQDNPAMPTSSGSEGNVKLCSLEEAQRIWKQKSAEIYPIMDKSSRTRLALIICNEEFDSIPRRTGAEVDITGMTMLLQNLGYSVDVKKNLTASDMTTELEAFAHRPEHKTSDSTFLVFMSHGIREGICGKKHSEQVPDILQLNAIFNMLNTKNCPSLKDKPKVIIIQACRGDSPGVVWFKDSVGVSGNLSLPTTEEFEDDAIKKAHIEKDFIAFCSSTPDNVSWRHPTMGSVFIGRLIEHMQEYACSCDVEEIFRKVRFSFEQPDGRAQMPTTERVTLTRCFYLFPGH
Further details: species or system Escherichia coli.

In series [6] the target is Tyrosine-protein kinase Fyn (Homo sapiens, UniProt P06241). Nature of the series: biochemical. The series is classed as cell-based, Insect cells.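 Further: enzymatic inhibition of Fyn kinase activity measured with Poly(Glu:Tyr) as the phosphorylation substrate; in other assays of this panel Not Active means under 50% inhibition at 10 µM.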
Series [7] addresses T3, Cytochrome P450 2A6 (Homo sapiens, UniProt P11509).
T3 sequence (P11509 whole entry): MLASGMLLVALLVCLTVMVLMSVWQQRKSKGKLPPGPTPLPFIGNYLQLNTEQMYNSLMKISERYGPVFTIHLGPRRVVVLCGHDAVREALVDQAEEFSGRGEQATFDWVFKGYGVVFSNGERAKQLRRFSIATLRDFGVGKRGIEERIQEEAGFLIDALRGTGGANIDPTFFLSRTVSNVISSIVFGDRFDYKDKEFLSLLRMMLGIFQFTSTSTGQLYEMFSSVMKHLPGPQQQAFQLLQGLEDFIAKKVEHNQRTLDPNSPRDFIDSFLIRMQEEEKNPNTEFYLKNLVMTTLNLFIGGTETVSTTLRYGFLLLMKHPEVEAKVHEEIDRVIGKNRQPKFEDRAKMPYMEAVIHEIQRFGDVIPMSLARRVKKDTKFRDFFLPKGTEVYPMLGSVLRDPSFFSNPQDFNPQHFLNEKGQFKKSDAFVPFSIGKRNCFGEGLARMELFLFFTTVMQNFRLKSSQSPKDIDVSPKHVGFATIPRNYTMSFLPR
As to conditions: bti-tn-5b1-4.

Series [8] has as its target T4, Estrogen receptor (Homo sapiens, UniProt P03372). Further: in other assays of this panel Not Active means under 50% inhibition at 10 µM.
T4 sequence (P03372 whole entry): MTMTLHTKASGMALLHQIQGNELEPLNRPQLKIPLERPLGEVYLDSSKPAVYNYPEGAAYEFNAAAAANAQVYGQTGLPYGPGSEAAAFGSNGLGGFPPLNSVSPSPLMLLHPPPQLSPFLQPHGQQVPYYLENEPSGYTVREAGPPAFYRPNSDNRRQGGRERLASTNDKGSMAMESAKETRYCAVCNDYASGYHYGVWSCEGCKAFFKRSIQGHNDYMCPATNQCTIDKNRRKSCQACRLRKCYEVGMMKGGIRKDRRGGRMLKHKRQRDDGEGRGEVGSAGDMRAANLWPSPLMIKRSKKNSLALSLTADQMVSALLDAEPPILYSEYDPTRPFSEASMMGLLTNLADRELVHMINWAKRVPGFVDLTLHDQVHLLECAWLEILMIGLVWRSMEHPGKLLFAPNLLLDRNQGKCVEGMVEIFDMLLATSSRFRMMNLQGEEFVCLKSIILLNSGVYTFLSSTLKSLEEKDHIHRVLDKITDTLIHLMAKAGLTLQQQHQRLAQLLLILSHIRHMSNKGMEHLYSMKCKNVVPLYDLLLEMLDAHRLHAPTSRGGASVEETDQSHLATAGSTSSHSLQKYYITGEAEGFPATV
Particulars: sf9.

Sequence of Kappa-type opioid receptor (P41145 whole entry): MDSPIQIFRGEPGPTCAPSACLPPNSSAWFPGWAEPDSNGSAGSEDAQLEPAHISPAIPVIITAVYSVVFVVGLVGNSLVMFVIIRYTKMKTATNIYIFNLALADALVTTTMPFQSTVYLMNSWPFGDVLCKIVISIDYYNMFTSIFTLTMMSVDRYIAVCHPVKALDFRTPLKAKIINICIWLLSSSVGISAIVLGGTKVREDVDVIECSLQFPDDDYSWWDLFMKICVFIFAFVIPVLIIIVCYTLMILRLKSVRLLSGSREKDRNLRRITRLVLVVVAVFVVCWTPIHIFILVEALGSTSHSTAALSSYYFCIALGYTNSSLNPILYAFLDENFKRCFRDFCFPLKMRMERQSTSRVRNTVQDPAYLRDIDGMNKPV
Sequence of Tyrosine-protein kinase Fyn (P06241 whole entry): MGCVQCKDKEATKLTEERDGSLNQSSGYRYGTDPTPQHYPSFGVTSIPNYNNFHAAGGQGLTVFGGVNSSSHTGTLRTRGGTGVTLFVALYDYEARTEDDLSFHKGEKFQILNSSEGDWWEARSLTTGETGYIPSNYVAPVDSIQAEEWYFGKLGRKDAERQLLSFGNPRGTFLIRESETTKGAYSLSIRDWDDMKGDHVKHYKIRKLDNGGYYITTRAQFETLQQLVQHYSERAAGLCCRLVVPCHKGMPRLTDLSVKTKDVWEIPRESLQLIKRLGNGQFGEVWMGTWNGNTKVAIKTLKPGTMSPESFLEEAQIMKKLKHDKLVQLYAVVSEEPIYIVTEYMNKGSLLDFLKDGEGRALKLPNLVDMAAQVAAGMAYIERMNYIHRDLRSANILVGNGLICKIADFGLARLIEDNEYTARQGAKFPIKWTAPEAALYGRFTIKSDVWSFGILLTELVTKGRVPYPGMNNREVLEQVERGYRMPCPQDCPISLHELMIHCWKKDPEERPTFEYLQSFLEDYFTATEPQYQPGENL

One may read the IC50 as the concentration needed to halve the response being measured. `CC(C)[C@H]1C(=O)N2CCC[C@H]2[C@]2(O)O[C@](NC(=O)[C@@H]3C=C4c5cccc6[nH]cc(c56)C[C@H]4N(C)C3)(C(C)C)C(=O)N12` [ERGOCORNINE]: the concentration for half-maximal inhibition (IC50) result in series [1], in series [2], in series [3] (reticulocytes), in series [4], in series [5] and in series [6] (insect cells) was “Not Active” in each case. For the same compound, the IC50 entry in series [7] and in series [8] was “Not Active” throughout. Further, the Ki entry in series [1] and in series [7] was “Not Active” throughout.

For the compound `OC(Cn1cncn1)(Cn1cncn1)c1ccc(F)cc1F` [FLUCONAZOLE], the IC50 entry in series [1], in series [2], in series [3] (reticulocytes), in series [4], in series [5] and in series [6] (insect cells) was “Not Active” throughout. Moreover, the IC50 entry in series [7] and in series [8] was “Not Active” each time. Further, the Ki entry in series [1] and in series [7] was “Not Active” each time.

Consider `CC(C)C(=O)Nc1ccc([N+](=O)[O-])c(C(F)(F)F)c1` [FLUTAMIDE], for which the IC50 result in series [1], in series [2], in series [3] (reticulocytes), in series [4], in series [5] and in series [6] (insect cells) was “Not Active” each time. The IC50 result in series [7] and in series [8] was “Not Active” in each case. The Ki entry in series [1] and in series [7] was “Not Active” each time.

With `CC1(C)O[C@@H]2C[C@H]3[C@@H]4CCC5=CC(=O)CC[C@]5(C)[C@@]4(F)[C@@H](O)C[C@]3(C)[C@]2(C(=O)CCl)O1` [HALCINONIDE], the IC50 result in series [1], in series [2], in series [3] (reticulocytes), in series [4], in series [5] and in series [6] (insect cells) was “Not Active” throughout. Moreover, the IC50 entry in series [7] and in series [8] was “Not Active” in each case. Further, the Ki result in series [1] and in series [7] was “Not Active” in each case.

As to `CC1Cc2ccccc2N1NC(=O)c1ccc(Cl)c(S(N)(=O)=O)c1` (stereo not given) [INDAPAMIDE], the IC50 entry in series [1] was “Not Active”; in series [2], “Not Active”; in series [3] (read-out: IC50), 2.92 µM; in series [4], “Not Active”; in series [5], “Not Active”; in series [6] (insect cells), “Not Active”. Moreover, the IC50 result in series [7] and in series [8] was “Not Active” each time. The Ki entry in series [1] and in series [7] was “Not Active” each time.

`CCC(C)n1ncn(-c2ccc(N3CCN(c4ccc(OCC5COC(Cn6cncn6)(c6ccc(Cl)cc6Cl)O5)cc4)CC3)cc2)c1=O` (stereo not given) [ITRACONAZOLE]: the IC50 entry was “Not Active” in series [1]; “Not Active” in series [2]; “Not Active” in series [3] (reticulocytes); “Not Active” in series [4]; “Not Active” in series [5]; 3.89 µM in series [6] (read-out: IC50). The half-maximal inhibitory concentration (IC50) entry in series [7] and in series [8] was “Not Active” each time. The Ki result in series [1] and in series [7] was “Not Active” in each case.

Turning to `CCCCN1CCCC[C@H]1C(=O)Nc1c(C)cccc1C` [LEVOBUPIVACAINE], the IC50 entry in series [1], in series [2], in series [3] (reticulocytes), in series [4], in series [5] and in series [6] (insect cells) was “Not Active” each time. The 50% inhibitory concentration (IC50) entry in series [7] and in series [8] was “Not Active” in each case. Further, the Ki result in series [1] and in series [7] was “Not Active” in each case.

For the compound `Sc1ncnc2nc[nH]c12` [MERCAPTOPURINE ANHYDROUS], the IC50 result in series [1], in series [2], in series [3] (reticulocytes), in series [4], in series [5] and in series [6] (insect cells) was “Not Active” each time. Besides, the IC50 entry in series [7] and in series [8] was “Not Active” in each case. Moreover, the Ki entry in series [1] and in series [7] was “Not Active” throughout.

With `C[C@]12CCC(=O)C=C1CC[C@@H]1[C@@H]2CC[C@@]2(C)[C@H]1CC[C@]2(C)O` [METHYLTESTOSTERONE], the IC50 result in series [1], in series [2], in series [3] (reticulocytes), in series [4], in series [5] and in series [6] (insect cells) was “Not Active” each time. Moreover, the concentration for half-maximal inhibition (IC50) entry in series [7] and in series [8] was “Not Active” throughout. In addition, the Ki result in series [1] and in series [7] was “Not Active” in each case.

For `CCn1cc(C(=O)O)c(=O)c2cc(F)c(N3CCNCC3)cc21` [NORFLOXACIN], the IC50 result in series [1], in series [2], in series [3] (reticulocytes), in series [4], in series [5] and in series [6] (insect cells) was “Not Active” throughout. Also, the IC50 result in series [7] and in series [8] was “Not Active” throughout. For the same compound, the Ki result in series [1] and in series [7] was “Not Active” in each case.

Take `Nc1nc2c(ncn2CCC(CO)CO)c(=O)[nH]1` [PENCICLOVIR]: the IC50 entry in series [1], in series [2], in series [3] (reticulocytes), in series [4], in series [5] and in series [6] (insect cells) was “Not Active” throughout. Besides, the IC50 entry in series [7] and in series [8] was “Not Active” each time. Also, the Ki entry in series [1] and in series [7] was “Not Active” throughout.

As for `C=C(C)C1(O)OC(=O)C=C1OC` (stereo not given) [PENICILLIC ACID], the IC50 entry in series [1], in series [2], in series [3] (reticulocytes), in series [4], in series [5] and in series [6] (insect cells) was “Not Active” in each case. Moreover, the IC50 result in series [7] and in series [8] was “Not Active” in each case. The Ki entry in series [1] and in series [7] was “Not Active” throughout.

For `CCCN1C[C@H](CSC)C[C@@H]2c3cccc4[nH]cc(c34)C[C@H]21` [PERGOLIDE], the IC50 result in series [1], in series [2], in series [3] (reticulocytes), in series [4], in series [5] and in series [6] (insect cells) was “Not Active” throughout. The half-maximal inhibitory concentration (IC50) result in series [7] and in series [8] was “Not Active” in each case. The Ki entry in series [1] and in series [7] was “Not Active” in each case.
